Reference: patent publication US7695930B2, “Method for the detection, identification and/or quantification of microoganisms with peptidase activity using phenoxazinone derivatives as enzyme substrates” (Biomerieux, priority 2003, dated 2010)
Where two headings read alike, the source gives them in different places.

What was measured:
Enterobacter cloacae = assay: Alanyl-peptidase detection on agar medium (Example 13); format: cell-based; conditions: 50 mg/l
Procedure: (§1) The detection media were prepared by mixing 3.6 g of biogelytone (bioMérieux), 2.16 g of meat extract (bioMérieux), 1.26 g of malt extract (bioMérieux), 5.76 g of NaCl (Merck) and 10.8 g of agar (bioMérieux).
(§2) 720 ml of osmosed water were added to the powder, and the mixture was then melted in a waterbath at […]. The product was separated into two flasks, each of 360 ml. Autoclaving was carried out at 121° C. for 15 min and the product was cooled to […]. in a waterbath.
(§3) L-Alanyl-7-amino-4-methylcoumarin (Ala-AMC, Bachem) was then added to the first flask as a control, at the final concentration of 50 mg/l, and L-alanyl-9-aminobenzo[a]phenoxazin-5-one (Ala-ABP, substrate of the invention obtained in Example 2, in which the amino acid is L-alanine), was then added to the second flask at the final concentration of 25 mg/l.
(§4) The size of the colonies, their coloration and also the intensity of this coloration were noted.

Hafnia alvei = assay: as above; format: cell-based; conditions: 50 mg/l
Procedure: as §1, §2, §3, §4

Candida glabrata = assay: as above; format: cell-based; conditions: 50 mg/l
Procedure: as §1, §2, §3, §4

Serratia marcescens = assay: as above; format: cell-based; conditions: 50 mg/l
Procedure: as §1, §2, §3, §4

Staphylococcus aureus = assay: as above; format: cell-based; conditions: 50 mg/l
Procedure: as §1, §2, §3, §4

Klebsiella pneumoniae = assay: as above; format: cell-based; conditions: 50 mg/l
Procedure: as §1, §2, §3, §4

Edwardsiella tarda = assay: as above; format: cell-based; conditions: 50 mg/l
Procedure: as §1, §2, §3, §4

Enterococcus faecium = assay: as above; format: cell-based; conditions: 50 mg/l
Procedure: as §1, §2, §3, §4

Streptococcus agalactiae = assay: as above; format: cell-based; conditions: 50 mg/l
Procedure: as §1, §2, §3, §4

[1] = tested on: Corynebacterium Pseudodiphteriticum; assay: as above; format: cell-based; conditions: 50 mg/l
Procedure: as §1, §2, §3, §4

Proteus mirabilis = assay: as above; format: cell-based; conditions: 50 mg/l
Procedure: as §1, §2, §3, §4

Salmonella typhimurium = assay: as above; format: cell-based; conditions: 50 mg/l
Procedure: as §1, §2, §3, §4

Escherichia coli = assay: as above; format: cell-based; conditions: 50 mg/l
Procedure: as §1, §2, §3, §4

[2] = tested on: Staphylococcus saprophyticus; assay: as above; format: cell-based; conditions: 50 mg/l
Procedure: as §1, §2, §3, §4

Candida albicans = assay: as above; format: cell-based; conditions: 50 mg/l
Procedure: as §1, §2, §3, §4

Serratia liquefaciens = assay: as above; format: cell-based; conditions: 50 mg/l
Procedure: as §1, §2, §3, §4

Saccharomyces cerevisiae = assay: as above; format: cell-based; conditions: 50 mg/l
Procedure: as §1, §2, §3, §4

Acinetobacter baumanii = assay: as above; format: cell-based; conditions: 50 mg/l
Procedure: as §1, §2, §3, §4

Bacillus subtilis = assay: as above; format: cell-based; conditions: 50 mg/l
Procedure: as §1, §2, §3, §4

Listeria innocua = assay: as above; format: cell-based; conditions: 50 mg/l
Procedure: as §1, §2, §3, §4

Candida krusei = assay: as above; format: cell-based; conditions: 50 mg/l
Procedure: as §1, §2, §3, §4

Enterococcus faecalis = assay: as above; format: cell-based; conditions: 50 mg/l
Procedure: as §1, §2, §3, §4

[3] = tested on: Staphylococcus epidermidis; assay: as above; format: cell-based; conditions: 50 mg/l
Procedure: as §1, §2, §3, §4

Pseudomonas aeruginosa = assay: as above; format: cell-based; conditions: 50 mg/l
Procedure: as §1, §2, §3, §4

Streptococcus pyogenes = assay: as above; format: cell-based; conditions: 50 mg/l
Procedure: as §1, §2, §3, §4

Candida albicans (NCTC) = conditions: 60 mg/l
Procedure: (§5) 300 ml of Columbia medium were melted in a waterbath at 100° C. and autoclaved at 121° C. for 15 min. The product was then cooled to 50° C. in a waterbath.
(§6) This medium was separated into 3 flasks of 100 ml, and then, added at 50° C., as substrates, were those of Examples 4 and 6 for which the amino acid is β-alanine (respectively, β-alanine-9-amino-6-carbethoxybenzo[a]phenoxazin-5-one or β-Ala-ACAP and β-alanine-9-amino-6-chlorobenzo[a]phenoxazin-5-one or β-Ala-ACHP), solubilized in DMSO, according to the concentrations indicated in Table 5 below:
(§7) The medium was then poured into Petri dishes.
(§8) Nine microorganism strains derived from the Applicant's collection, suspended in physiological saline, were seeded onto the media prepared in point 14.1 above according to a multipoint inoculation in a proportion of 100 000 cfu/spot. The dishes were incubated at 37° C. for 48 hours. The colonies formed (one colony per strain) were examined visually after incubation for 24 and 48 hours.
(§9) The results are expressed in Table 6 hereinafter according to the rules and the nomenclature stated in paragraph 11.3 and where RP signifies pale pink.

[4] = tested on: Enterobacter cloacae (NCTC 11936); conditions: 60 mg/l
Procedure: as §5, §6, §7, §8, §9

[5] = tested on: Enteroccus faecalis (NCTC 775); conditions: 60 mg/l
Procedure: as §5, §6, §7, §8, §9

[6] = tested on: Escherichia coli (NCTC 10418); conditions: 60 mg/l
Procedure: as §5, §6, §7, §8, §9

Burkholderia cepacia 2 = conditions: 60 mg/l
Procedure: as §5, §6, §7, §8, §9

Pseudomonas aeruginosa 1 = conditions: 60 mg/l
Procedure: as §5, §6, §7, §8, §9

Burkholderia cepacia 1 = conditions: 60 mg/l
Procedure: as §5, §6, §7, §8, §9

Pseudomonas aeruginosa 3 = conditions: 60 mg/l
Procedure: as §5, §6, §7, §8, §9

Pseudomonas aeruginosa 2 = conditions: 60 mg/l
Procedure: as §5, §6, §7, §8, §9

Cc1cc(=O)oc2cc(NC(=O)[C@H](C)N)ccc12 [Ala-AMC, L-Alanyl-7-amino-4-methylcoumarin, reference compound]
2: intensity of coloration, scale 0 to 4 ([1]; 48 h) | intensity of coloration, scale 0 to 4 (Candida albicans; 48 h) | intensity of coloration, scale 0 to 4 (Pseudomonas aeruginosa; 48 h)
1.2 mm: growth diameter (Klebsiella pneumoniae; 24 h)
0.7 mm: growth diameter (Hafnia alvei; 24 h) | growth diameter (Hafnia alvei; 48 h) | growth diameter (Serratia marcescens; 48 h) | growth diameter (Staphylococcus aureus; 48 h) | growth diameter (Proteus mirabilis; 24 h) | growth diameter (Proteus mirabilis; 48 h) | growth diameter (Serratia liquefaciens; 24 h) | growth diameter (Candida krusei; 24 h)
0.2 mm: growth diameter (Candida glabrata; 24 h) | growth diameter (Enterococcus faecium; 24 h) | growth diameter (Streptococcus agalactiae; 48 h) | growth diameter (Saccharomyces cerevisiae; 48 h) | growth diameter (Listeria innocua; 24 h) | growth diameter (Streptococcus pyogenes; 48 h)
0.4 mm: growth diameter (Edwardsiella tarda; 24 h) | growth diameter ([1]; 48 h) | growth diameter ([2]; 48 h) | growth diameter (Enterococcus faecalis; 48 h) | growth diameter ([3]; 48 h)
0.5 mm: growth diameter (Enterobacter cloacae; 24 h) | growth diameter (Serratia marcescens; 24 h) | growth diameter (Staphylococcus aureus; 24 h) | growth diameter (Edwardsiella tarda; 48 h) | growth diameter (Candida albicans; 48 h) | growth diameter (Pseudomonas aeruginosa; 48 h)
1.8 mm: growth diameter (Klebsiella pneumoniae; 48 h) | growth diameter (Bacillus subtilis; 48 h)
1.7 mm: growth diameter (Escherichia coli; 24 h) | growth diameter (Escherichia coli; 48 h) | growth diameter (Bacillus subtilis; 24 h)
0.3 mm: growth diameter (Candida glabrata; 48 h) | growth diameter (Enterococcus faecium; 48 h) | growth diameter ([2]; 24 h) | growth diameter (Candida albicans; 24 h) | growth diameter (Listeria innocua; 48 h) | growth diameter (Enterococcus faecalis; 24 h) | growth diameter ([3]; 24 h) | growth diameter (Pseudomonas aeruginosa; 24 h)
1.3 mm: growth diameter (Salmonella typhimurium; 24 h) | growth diameter (Serratia liquefaciens; 48 h)
0.8 mm: growth diameter (Enterobacter cloacae; 48 h)
0 mm: growth diameter ([1]; 24 h)
0.25: intensity of coloration, scale 0 to 4 (Enterococcus faecium; 48 h) | intensity of coloration, scale 0 to 4 (Candida krusei; 48 h)
1.5 mm: growth diameter (Salmonella typhimurium; 48 h) | growth diameter (Acinetobacter baumanii; 24 h) | growth diameter (Acinetobacter baumanii; 48 h) | growth diameter (Candida krusei; 48 h)
0.1 mm: growth diameter (Streptococcus agalactiae; 24 h) | growth diameter (Saccharomyces cerevisiae; 24 h) | growth diameter (Streptococcus pyogenes; 24 h)
3: intensity of coloration, scale 0 to 4 (Enterobacter cloacae; 24 h) | intensity of coloration, scale 0 to 4 (Enterobacter cloacae; 48 h) | intensity of coloration, scale 0 to 4 (Hafnia alvei; 24 h) | intensity of coloration, scale 0 to 4 (Hafnia alvei; 48 h) | intensity of coloration, scale 0 to 4 (Serratia marcescens; 24 h) | intensity of coloration, scale 0 to 4 (Serratia marcescens; 48 h) | intensity of coloration, scale 0 to 4 (Klebsiella pneumoniae; 24 h) | intensity of coloration, scale 0 to 4 (Klebsiella pneumoniae; 48 h) | intensity of coloration, scale 0 to 4 (Edwardsiella tarda; 24 h) | intensity of coloration, scale 0 to 4 (Edwardsiella tarda; 48 h) | intensity of coloration, scale 0 to 4 (Proteus mirabilis; 24 h) | intensity of coloration, scale 0 to 4 (Proteus mirabilis; 48 h) | intensity of coloration, scale 0 to 4 (Salmonella typhimurium; 24 h) | intensity of coloration, scale 0 to 4 (Salmonella typhimurium; 48 h) | intensity of coloration, scale 0 to 4 (Escherichia coli; 24 h) | intensity of coloration, scale 0 to 4 (Escherichia coli; 48 h) | intensity of coloration, scale 0 to 4 (Serratia liquefaciens; 24 h) | intensity of coloration, scale 0 to 4 (Serratia liquefaciens; 48 h) | intensity of coloration, scale 0 to 4 (Acinetobacter baumanii; 24 h) | intensity of coloration, scale 0 to 4 (Acinetobacter baumanii; 48 h) | intensity of coloration, scale 0 to 4 (Streptococcus pyogenes; 48 h)

β-alanine-9-amino-6-carbethoxybenzo[a]phenoxazin-5-one [β-Ala-ACAP]
R: color of the colony (Pseudomonas aeruginosa 1; 24 h) | color of the colony (Pseudomonas aeruginosa 1; 48 h) | color of the colony (Pseudomonas aeruginosa 3; 24 h) | color of the colony (Pseudomonas aeruginosa 3; 48 h) | color of the colony (Pseudomonas aeruginosa 2; 24 h) | color of the colony (Pseudomonas aeruginosa 2; 48 h)
3: intensity of coloration, scale 0 to 4 (Pseudomonas aeruginosa 1; 48 h) | intensity of coloration, scale 0 to 4 (Pseudomonas aeruginosa 3; 48 h)
3 mm: growth diameter ([4]; 24 h) | growth diameter ([4]; 48 h) | growth diameter ([6]; 48 h) | growth diameter (Pseudomonas aeruginosa 1; 24 h) | growth diameter (Pseudomonas aeruginosa 1; 48 h) | growth diameter (Pseudomonas aeruginosa 2; 24 h) | growth diameter (Pseudomonas aeruginosa 2; 48 h)
2: intensity of coloration, scale 0 to 4 (Pseudomonas aeruginosa 3; 24 h) | intensity of coloration, scale 0 to 4 (Pseudomonas aeruginosa 2; 24 h) | intensity of coloration, scale 0 to 4 (Pseudomonas aeruginosa 2; 48 h)
1: intensity of coloration, scale 0 to 4 (Pseudomonas aeruginosa 1; 24 h)
1 mm: growth diameter (Pseudomonas aeruginosa 3; 24 h)
2 mm: growth diameter (Candida albicans (NCTC); 24 h) | growth diameter (Candida albicans (NCTC); 48 h) | growth diameter ([5]; 24 h) | growth diameter ([5]; 48 h) | growth diameter ([6]; 24 h) | growth diameter (Burkholderia cepacia 2; 24 h) | growth diameter (Burkholderia cepacia 2; 48 h) | growth diameter (Burkholderia cepacia 1; 24 h) | growth diameter (Burkholderia cepacia 1; 48 h) | growth diameter (Pseudomonas aeruginosa 3; 48 h)

β-alanine-9-amino-6-chlorobenzo[a]phenoxazin-5-one [β-Ala-ACHP]
1 mm: growth diameter ([5]; 24 h) | growth diameter ([5]; 48 h) | growth diameter (Pseudomonas aeruginosa 3; 24 h)
R: color of the colony (Pseudomonas aeruginosa 1; 24 h) | color of the colony (Pseudomonas aeruginosa 3; 24 h) | color of the colony (Pseudomonas aeruginosa 2; 24 h)
2 mm: growth diameter (Candida albicans (NCTC); 24 h) | growth diameter (Candida albicans (NCTC); 48 h) | growth diameter ([4]; 24 h) | growth diameter ([6]; 24 h) | growth diameter (Burkholderia cepacia 2; 24 h) | growth diameter (Burkholderia cepacia 2; 48 h) | growth diameter (Burkholderia cepacia 1; 24 h) | growth diameter (Burkholderia cepacia 1; 48 h) | growth diameter (Pseudomonas aeruginosa 3; 48 h) | growth diameter (Pseudomonas aeruginosa 2; 24 h)
3 mm: growth diameter ([4]; 48 h) | growth diameter ([6]; 48 h) | growth diameter (Pseudomonas aeruginosa 1; 24 h) | growth diameter (Pseudomonas aeruginosa 1; 48 h) | growth diameter (Pseudomonas aeruginosa 2; 48 h)
2: intensity of coloration, scale 0 to 4 (Pseudomonas aeruginosa 1; 24 h) | intensity of coloration, scale 0 to 4 (Pseudomonas aeruginosa 1; 48 h) | intensity of coloration, scale 0 to 4 (Pseudomonas aeruginosa 3; 24 h) | intensity of coloration, scale 0 to 4 (Pseudomonas aeruginosa 3; 48 h) | intensity of coloration, scale 0 to 4 (Pseudomonas aeruginosa 2; 24 h) | intensity of coloration, scale 0 to 4 (Pseudomonas aeruginosa 2; 48 h)
